The record followed here is patent US12275726B2, “Aurora kinase inhibitors and use thereof” (WIGEN BIOMEDICINE TECHNOLOGY (SHANGHAI) CO., LTD., priority 2019, dated 2025).

By IC50 is commonly meant the concentration that gives 50% inhibition.

The target of one test is T1, Aurora-A kinase (Homo sapiens, UniProt O14965).
T1 sequence (O14965 1-403): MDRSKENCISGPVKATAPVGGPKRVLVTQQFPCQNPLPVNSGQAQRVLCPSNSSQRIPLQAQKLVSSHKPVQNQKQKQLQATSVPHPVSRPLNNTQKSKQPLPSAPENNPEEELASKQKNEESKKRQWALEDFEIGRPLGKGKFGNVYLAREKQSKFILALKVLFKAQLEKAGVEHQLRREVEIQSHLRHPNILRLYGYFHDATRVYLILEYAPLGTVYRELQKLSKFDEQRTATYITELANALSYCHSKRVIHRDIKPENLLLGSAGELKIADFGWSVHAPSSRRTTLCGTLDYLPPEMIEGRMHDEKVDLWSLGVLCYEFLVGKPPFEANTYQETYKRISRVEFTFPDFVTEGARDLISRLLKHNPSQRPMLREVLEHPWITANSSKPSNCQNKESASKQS
Put plainly: Caliper Mobility Shift assay for inhibitory activity against aurora kinase (Aurora-A). The test is classed as biochemical. As to conditions: FAM-labeled polypeptide substrate, 25° C. Here is the method:
(§1) The compounds were each subjected to gradient dilution from 10 μM to obtain a total of 10 concentrations. After the enzyme and kinase reaction solution (20 mM HEPES, pH 7.5, 0.01% Triton X-100) were mixed, the gradiently diluted compound was added. The mixture was incubate at room temperature for 10 min to allow the compound and enzyme to bind well. Then, FAM-labeled polypeptide was added as a substrate to carry out a kinase reaction at 25° C., and after a certain time, a stop solution was added.

In test [1] the test system is human small cell lung cancer H69 cells. Put plainly: Anti-proliferation activity against H69 cells (ATP content, 72 h). The format is cell-based. The procedure: Tumor cells (human small cell lung cancer H69 cells) in logarithmic growth phase were seeded into a 384-well culture plate at 4×10^3 cells per well, 50 μL of medium was added to each well, and the mixtures were cultured overnight in a 37° C./5% CO2 incubator. After the cells adhered to the wall, the test compounds and the positive control drug at proper concentrations were each added, and five samples with different concentrations were prepared. A blank group was taken as a negative control group, and the resulting mixtures were cultured in an incubator for 72 h. 50 μL of CTL plus was then added to each well, and the number of cells was evaluated by measuring ATP content in the cells.

Another test deals with Aurora-B kinase (Homo sapiens, UniProt Q96GD4). Put plainly: Caliper Mobility Shift assay for inhibitory activity against aurora kinase (Aurora-B). The format is biochemical. The settings on record: FAM-labeled polypeptide substrate, 25° C. The procedure: as §1
Test [2] deals with Human lung cancer H69 cells graft tumors. Put plainly: Anti-tumor activity in nude mice bearing H69 graft tumors. The test is classed as in vivo. The settings on record: for in vivo anti-tumor activity compared with the positive control LY-3295668: 20 mg/kg bid*21, H69 graft tumors in nude mice, statement in words; for Anti-tumor effect: 20 mg/kg, bid*21, intragastric, suspension in 0.5% CMC-Na, NCI-H69 graft tumors in nude mice. The procedure: 1×10^7 H69 cells were injected into the right dorsal side of each nude mouse, and the animals were randomly grouped for administration after tumors grew to 150 mm^3. […] On Tuesday and Thursday each week, tumor volumes and body weight of mice were measured, and the nude mice were sacrificed on day 21 of administration.

Where two headings read alike, the source gives them in different places.

Aurora-B kinase, sequence (Q96GD4 whole entry): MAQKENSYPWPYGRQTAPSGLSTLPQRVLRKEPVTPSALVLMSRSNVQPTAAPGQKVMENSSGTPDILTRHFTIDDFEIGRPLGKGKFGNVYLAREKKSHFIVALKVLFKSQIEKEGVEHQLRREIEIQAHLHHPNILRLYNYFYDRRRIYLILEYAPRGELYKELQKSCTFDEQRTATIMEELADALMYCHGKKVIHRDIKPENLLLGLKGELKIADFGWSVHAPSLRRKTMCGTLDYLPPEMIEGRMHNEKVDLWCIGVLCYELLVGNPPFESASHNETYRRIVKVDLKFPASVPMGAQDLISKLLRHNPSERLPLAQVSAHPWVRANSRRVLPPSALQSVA

Regarding `Cc1cc(Nc2ccc(F)c(CC3(C(=O)O)CCN(Cc4cccc(Cl)c4F)C(C(F)(F)F)C3)n2)n[nH]1` (centres unmarked) [Compound 15, 1-(3-chloro-2-fluorobenzyl)-4-((3-fluoro-6-((5-methyl-1H-pyrazol-3-yl)amino)pyridin-2-yl)methyl)-2-(trifluoromethyl)piperidine-4-carboxylic acid], the IC50 on Aurora-A kinase worked out at 0.62 nM; in test [1] (Homo sapiens, NCI-H69, 72 h), 770 nM; on Aurora-B kinase, 1490 nM.

For the compound `O=C(O)C1(Cc2nc(Nc3nccs3)ccc2F)CCN(Cc2cccc(Cl)c2F)C(CF)C1` (centres unmarked) [Compound 11, 1-(3-chloro-2-fluorobenzyl)-4-((3-fluoro-6-(thiazol-2-ylamino)pyridin-2-yl)methyl)-2-(fluoromethyl)piperidine-4-carboxylic acid], the IC50 is 2.4 nM at Aurora-A kinase; 19 nM in test [1] (Homo sapiens, NCI-H69, 72 h); 128 nM at Aurora-B kinase.

`CCOCC1CC(Cc2nc(Nc3nccs3)ccc2F)(C(=O)O)CCN1Cc1cccc(Cl)c1F` (centres unmarked) [Compound 7, 1-(3-chloro-2-fluorobenzyl)-2-(ethoxymethyl)-4-((3-fluoro-6-(thiazol-2-ylamino)pyridin-2-yl)methyl)piperidine-4-carboxylic acid]: the IC50 at Aurora-A kinase came to 0.74 nM; in test [1] (Homo sapiens, NCI-H69, 72 h), 52 nM; on Aurora-B kinase, 286 nM.

Consider `COCC1CC(Cc2nc(Nc3nccs3)ccc2F)(C(=O)O)CCN1Cc1cccc(Cl)c1F` (centres unmarked) [Compound 6, 1-(3-chloro-2-fluorobenzyl)-4-((3-fluoro-6-(thiazol-2-ylamino)pyridin-2-yl)methyl)-2-(methoxymethyl)piperidine-4-carboxylic acid], for which the IC50 on Aurora-A kinase stood at 0.57 nM; in test [1] (Homo sapiens, NCI-H69, 72 h) it was 49 nM; at Aurora-B kinase, 78 nM. Also, in test [2], the “in vivo anti-tumor activity compared with the positive control LY-3295668” value is “significantly increased in vivo anti-tumor activity”. This compound showed an Anti-tumor effect in test [2] of 30% shrinking.

With `COCC1CC(Cc2nc(Nc3cc(C)[nH]n3)ccc2F)(C(=O)O)CCN1Cc1cccc(Cl)c1F` (centres unmarked) [Compound 25, 1-(3-chloro-2-fluorobenzyl)-4-((3-fluoro-6-((5-methyl-1H-pyrazol-3-yl)amino)pyridin-2-yl)methyl)-2-(methoxymethyl)piperidine-4-carboxylic acid], the IC50 on Aurora-A kinase is 0.78 nM; in test [1] (Homo sapiens, NCI-H69, 72 h), 98 nM; on Aurora-B kinase, over 3000 nM.

On to `O=C(O)C1(Cc2nc(Nc3nccs3)ccc2F)CCN(Cc2cccc(Cl)c2F)C(C(F)(F)F)C1` (centres unmarked) [Compound 1, 1-(3-chloro-2-fluorobenzyl)-4-((3-fluoro-6-(thiazol-2-ylamino)pyridin-2-yl)methyl)-2-(trifluoromethyl)piperidine-4-carboxylic acid], for which the IC50 turned out to be 0.53 nM at Aurora-A kinase; 11 nM in test [1] (Homo sapiens, NCI-H69, 72 h); 148 nM at Aurora-B kinase. Also, the “in vivo anti-tumor activity compared with the positive control LY-3295668” value in test [2] is “significantly increased in vivo anti-tumor activity”. The same compound came in with an Anti-tumor effect in test [2] of 29% shrinking.

On to `CCC1CC(Cc2nc(Nc3nccs3)ccc2F)(C(=O)O)CCN1Cc1cccc(Cl)c1F` (centres unmarked) [Compound 5, 1-(3-chloro-2-fluorobenzyl)-2-ethyl-4-((3-fluoro-6-(thiazol-2-ylamino)pyridin-2-yl)methyl)piperidine-4-carboxylic acid], for which the values for the IC50 (at Aurora-A kinase; in test [1]; on Aurora-B kinase) were 0.82 nM, 33 nM and 140 nM, respectively. Further, the Anti-tumor effect in test [2] amounted to 9% shrinking.

In the case of `Cc1cnc(Nc2ccc(F)c(CC3(C(=O)O)CCN(Cc4cccc(Cl)c4F)C(C(F)(F)F)C3)n2)s1` (centres unmarked) [Compound 13, 1-(3-chloro-2-fluorobenzyl)-4-((3-fluoro-6-(5-methylthiazol-2-ylamino)pyridin-2-yl)methyl)-2-(trifluoromethyl)piperidine-4-carboxylic acid], the IC50 on Aurora-A kinase was 0.64 nM; in test [1] (Homo sapiens, NCI-H69, 72 h), 590 nM; on Aurora-B kinase, 113 nM.

Take `COCC1CC(Cc2nc(Nc3ncc(C)s3)ccc2F)(C(=O)O)CCN1Cc1cccc(Cl)c1F` (centres unmarked) [Compound 23, 1-(3-chloro-2-fluorobenzyl)-4-((3-fluoro-6-(5-methylthiazol-2-ylamino)pyridin-2-yl)methyl)-2-(methoxymethyl)piperidine-4-carboxylic acid]: the IC50 worked out at 0.57 nM at Aurora-A kinase; 58 nM in test [1] (Homo sapiens, NCI-H69, 72 h); 2470 nM on Aurora-B kinase.

As for `CCC1CC(Cc2nc(Nc3cc(C)[nH]n3)ccc2F)(C(=O)O)CCN1Cc1cccc(Cl)c1F` (centres unmarked) [Compound 19, 1-(3-chloro-2-fluorobenzyl)-2-ethyl-4-((3-fluoro-6-((5-methyl-1H-pyrazol-3-yl)amino)pyridin-2-yl)methyl)piperidine-4-carboxylic acid], the IC50 is 3.1 nM on Aurora-A kinase; 219 nM in test [1] (Homo sapiens, NCI-H69, 72 h); over 3000 nM on Aurora-B kinase.

In the case of `CCC1CC(Cc2nc(Nc3nccs3)ccc2F)(C(=O)O)CCN1Cc1cccc(Cl)c1F` (centres unmarked) [Compound 29, 1-(3-chloro-2-fluorobenzyl)-2-ethyl-4-((3-fluoro-6-(thiazol-2-ylamino)pyridin-2-yl)methyl)piperidine-4-carboxylic acid], the IC50 on Aurora-A kinase came to 1.3 nM; in test [1] (Homo sapiens, NCI-H69, 72 h), 24 nM; at Aurora-B kinase it was 90 nM.
